The text below walks through data of patent publication US20250064750A1, “LIPID AND COMPOSITION USED FOR DELIVERY” (JIANGSU HENGRUI PHARMACEUTICALS CO., LTD., priority 2021, published 2025).

Each structure is given as a SMILES string. Where two headings read alike, the source gives them in different places.

The nature of series [1]: Size and polydispersity index of liposomal nanoparticles by dynamic light scattering. The class given is physicochemical. Particulars: mRNA-encapsulating liposomal nanoparticles; lipid:DSPC:cholesterol:DMG-PEG 50:10:38.5:1.5. The method, then:
(§1) Compound 1, compound 2, and comparative compound 1 were each dissolved in an ethanol solution, and the resulting solution was mixed with solutions of DSPC, cholesterol, and DMG-PEG in ethanol in a mole ratio of 50:10:38.5:1.5 to prepare an ethanol lipid solution. mRNA encoding a human growth factor was dissolved in a citrate buffer to prepare an aqueous mRNA solution. Liposomes were prepared by mixing the ethanol lipid solution and the aqueous mRNA solution by microfluidics with a weight ratio of total lipids to mRNA of about 20:1. The ethanol was removed by dialysis against PBS solution to give an mRNA-encapsulating liposomal nanoparticle composition.
The size and polydispersity index (PDI) of the liposomal nanoparticles were determined using a Malvern Zetasizer Nano ZS in a 173° backscatter detection mode through dynamic light scattering.

Series [2] can be described thus: Liposome encapsulation efficiency, Quant-iT RiboGreen RNA assay. The note with it: mRNA-encapsulating liposomal nanoparticles. Type of series: physicochemical. The method, then:
as §1
The liposome encapsulation efficiency was determined using a Quant-iT RiboGreen RNA assay kit.

Series [3] in a line: pKa of cations in liposomal nanoparticles, TNS fluorescence analysis. Type of series: physicochemical. The note with it: pH at half-maximal TNS fluorescence. The method, then:
as §1
The pKa of cations in the liposomal nanoparticles was determined using a fluorescence analysis based on 6-(p-toluidino)-2-naphthalenesulfonic acid sodium salt (TNS). 150 mM NaCl, 10 mM sodium phosphate, 10 mM sodium citrate, 10 mM sodium borate, and buffers of various pH levels ranging from 3 to 11.5 were prepared. A 300 μM TNS solution was prepared and added to the buffers. The lipid nanoparticles were added to the buffers of different pH levels and thoroughly mixed with them. Then the fluorescence intensity at an excitation wavelength of 325 nm and an emission wavelength of 435 nm was measured at room temperature using a fluorescence microplate reader. A fitting analysis of the fluorescence data was performed, with the pKa being the pH value at which half-maximal fluorescence intensity was produced.

For series [4], the system named is hepatocyte growth factor protein. The series can be described thus: In vivo mRNA delivery by intramuscular injection, hepatocyte growth factor protein expression by ELISA. Further details: species or system BALB/c mice. The note with it: HGF mRNA lipid nanoparticles, 0.05 mg/kg; for Mean protein expression level: thigh muscle injection, muscle tissue after 24 hours. As to the method: After 24 hours, the muscle tissue at the injection site was collected, ground, and lysed. The expression level of hepatocyte growth factor protein (pg/mg), i.e., the hepatocyte growth factor protein amount to which the unit muscle tissue total protein amount corresponds, was then measured using an ELISA kit.
With the liposomal nanoparticles to which comparative compound 1 corresponds as a control, the intramuscular injection in vivo mRNA delivery efficiency of the liposomal nanoparticles to which compounds 1 and 2 correspond was measured.
For orientation: An ELISA detects its analyte on a solid surface through an enzyme-linked reagent.

The next series has as its system luciferase protein. The series can be described thus: Tail vein injection in vivo mRNA delivery efficiency, whole-body luciferase fluorescence intensity (IVIS). Further details: species or system BALB/c mice. The note with it: 0.5 mg/kg, 6 hours; for Fluorescence intensity level (p/s): whole body. The method, then: After 6 hours, the luciferase substrate was injected intraperitoneally into each mouse. Fluorescence images of the mice were captured using an IVIS small animal optical in vivo imaging system (PerkinElme), and the whole-body fluorescence intensity of the mice was recorded. The level of fluorescence intensity reflects the expression level of luciferase protein, i.e., the in vivo mRNA delivery efficiency of the liposomal nanoparticles. […] In FIG. 2, the fluorescence intensity refers to the whole-body fluorescence intensity of the mice recorded using the IVIS small animal optical in vivo imaging system. The level of fluorescence intensity reflects the expression level of luciferase protein, i.e., the in vivo mRNA delivery efficiency of the lipid nanoparticles.
With the liposomal nanoparticles to which comparative compound 1 corresponds as a control, the mouse tail vein injection in vivo mRNA delivery efficiency of the liposomal nanoparticles to which compound 1, compound 3, and compound 4 correspond was measured.

The nature of series [5]: Tissue targeting: cationic lipid concentrations in liver and spleen after tail vein injection, LC-MS. Type of series: in vivo, BALB/c mice. The note with it: 0.5 mg/kg; for AUC(0-t): female, BALB/c, mouse, intravenous, HGF mRNA lipid nanoparticles. As to the method: Based on pharmacokinetic parameters, the total cationic lipid concentrations in the tissues 48 hours after administration were calculated to evaluate the distribution of lipid nanoparticles in the liver and spleen.

Another series concerns interleukin 6 (IL-6). The series can be described thus: In vivo immunogenicity: serum IL-6 concentration by ELISA after tail vein injection. On the set-up: species or system BALB/c mice. The note with it: 0.5 mg/kg, 6 hours. The text has this: When exogenous substances enter the bodies of mammals, they induce an innate immune response, thereby promoting the production of cytokines. These exogenous substances can cause inflammatory reactions after entry into the body, which easily give rise to adverse reactions such as fever and edema in the body. The immunogenicity of lipid nanoparticles in the body was therefore evaluated by evaluating the concentration of a cytokine such as interleukin 6 (IL-6) in the blood of mice injected with lipid nanoparticles. Lower cytokine concentrations indicate that the lipid nanoparticles have lower immunogenicity, which means that they are biologically safer.
After 6 hours, blood was collected and serum was isolated. The IL-6 concentration in the serum was measured using a mouse IL-6 ELISA kit.

The conditions of series [6]: female, BALB/c, mouse, in vivo, 0.5 mg/kg.
Experimental: To evaluate the targeting in liposomal nanoparticles' in vivo delivery, liposomal nanoparticles with mRNA for expression of hepatocyte growth factor encapsulated therein were injected into the tail veins of 6-8 week old female BALB/c mice at a dose of 0.5 mg/kg. Plasma, liver, and spleen samples were collected at 1 hour, 2 hours, 4 hours, 6 hours, 24 hours, and 48 hours after injection of the lipid nanoparticles, and the concentrations of cationic lipid molecules in the plasma samples at the corresponding time points were determined by LC-MS mass spectrometry to evaluate the metabolism and in vivo clearance rate of the lipid nanoparticles. For the lipid nanoparticles to which each compound corresponds, at least 3 biological replicates were used, and the mean cationic lipid concentrations in the tissues were calculated.
Based on pharmacokinetic parameters, the half-lives of the cationic lipids in the tissues were calculated.
The nature of a further series: in vivo. The note with it: female, BALB/c, mouse, 0.5 mg/kg.
Where [7] appears, read: luciferase mRNA lipid nanoparticles.
The mark [8] stands for this setting: luciferase mRNA lipid nanoparticles, tail vein.

In general, pKa refers to the negative logarithm of the acid dissociation constant. The term half-life denotes how long it takes for the measured level to halve. A low value points to rapid decline. For `CCCCCCCCCCCOC(=O)CCCCCN(CCO)CCCCCOCC(=O)OC(CCCCCCCC)CCCCCCCC` [Compound 1], in series [1], the PDI is 0.08 and the “Size (nm)” value turned out to be 87.8 nm. For the same compound, in [2], the “Encapsulation efficiency (%)” value was 94.6%. Besides, the pKa in [3] was found to be 6.65. In addition, in series [4] (24 hours), the “in vivo mRNA delivery via intramuscular injection compared with comparative compound 1” value is recorded as “significantly outperformed” and the “in vivo mRNA delivery via intramuscular injection compared with compound 2” value was “significantly outperformed”. In [4], the “Mean protein expression level” value was determined as 217.3 pg/mg. Further, in the series on luciferase protein (setting [7]), the “tail vein injection in vivo mRNA delivery efficiency compared with comparative compound 1” value is reported as “significantly better” and the “tail vein injection in vivo mRNA delivery efficiency compared with comparative compound 3 (so in the source)” value was “significantly outperformed”. Moreover, in the series with luciferase protein (setting [8]), the “Fluorescence intensity level (p/s)” value worked out at 1.05E+09 p/s. The “protein expression level relative to lipid nanoparticles of comparative compound 1” value with luciferase protein (tail vein) came out at 2.1 times. Also, the AUC(0-t) in series [5] (cationic lipid in liver, read-out: AUC48 h (h*μg/mL) Liver) came to 540 µg·h/mL. Also, in series [5] (cationic lipid in spleen, read-out: AUC48 h (h*μg/mL) Spleen), the AUC(0-t) is 493 µg·h/mL. Besides, in [5] (liver samples at the various time points (FIG. 3)), the “concentration in the liver compared with comparative compound 1” value is “significantly higher”. Besides, in series [5] (spleen (FIG. 4)), the “concentration in the spleen compared with comparative compound 1” value is “significantly lower”. The “serum IL-6 concentration compared with comparative compound 1” value in the series on interleukin 6 (IL-6) is “significantly lower”. Besides, the “time at which completely cleared from plasma” value in series [6] was 4 h. The same compound yielded a concentration at 1 h in “in vivo” of 1160 ng/mL. The compound also gave a half-life in the series “in vivo” (Half-life (hours) Liver) of 34.2 h. In addition, the half-life in the series “in vivo” (Half-life (hours) Spleen) was 31.9 h.

Turning to `CCCCCCCCCCCOC(=O)CCCCCN(CCO)CCOCCCCC(=O)OC(CCCCCCCC)CCCCCCCC` [Compound 2], in series [1], the PDI is recorded as 0.07 and the “Size (nm)” value was 116.5 nm. Also, the “Encapsulation efficiency (%)” value in series [2] is listed as 97.3%. For the same compound, the pKa in series [3] came to 6.38. For the same compound, the “Mean protein expression level” value in series [4] is 92.5 pg/mg.

In the case of `CCCCCCCCCCCOC(=O)CCCCCN(CCO)CCCCCO[C@@H](C)C(=O)OC(CCCCCCCC)CCCCCCCC` [Compound 3], in [1], the PDI is given as 0.09 and the “Size (nm)” value was determined as 79.6 nm. Further, in series [2], the “Encapsulation efficiency (%)” value is recorded as 96.7%. This compound gave a pKa in series [3] of 6.49. For the same compound, in the series with luciferase protein (setting [8]), the “Fluorescence intensity level (p/s)” value is 4.28E+06 p/s.

`CCCCCCCCCCCOC(=O)CCCCCN(CCO)CCCCCOC(C)(C)C(=O)OC(CCCCCCCC)CCCCCCCC` [Compound 4]: in series [1], the PDI is reported as 0.07 and the “Size (nm)” value came to 74.8 nm. Also, the “Encapsulation efficiency (%)” value in series [2] amounted to 97.3%. The pKa in series [3] was found to be 6.3. In the series on luciferase protein (setting [7]), the “tail vein injection in vivo mRNA delivery efficiency compared with comparative compound 1” value is recorded as “significantly outperformed”. Besides, the “Fluorescence intensity level (p/s)” value with luciferase protein (setting [8]) is reported as 6.78E+08 p/s. Besides, the “serum IL-6 concentration compared with comparative compound 1” value in the series with interleukin 6 (IL-6) is “significantly lower”.
